According to ChEMBL document CHEMBL1124983, “Benzophenone dicarboxylic acid antagonists of leukotriene B4. 1. Structure-activity relationships of the benzophenone nucleus” (J Med Chem, 1990):

Tests used:
Assay type in all cases: functional
[1] = molecular target: Leukotriene B4 receptor 1 (Homo sapiens) (UniProt Q15722); test: Antagonistic activity against Leukotriene B4 receptor by using [3H]LTB4 as a radioligand at a concentration of 10e-5 M
[2] = molecular target: Leukotriene B4 receptor 1 (Homo sapiens) (UniProt Q15722); test: Antagonistic activity against Leukotriene B4 receptor by using [3H]LTB4 as a radioligand at a concentration of 10e-6 M
[3] = molecular target: Leukotriene B4 receptor 1 (Homo sapiens) (UniProt Q15722); test: Antagonistic activity against Leukotriene B4 receptor by using [3H]LTB4 as a radioligand at a concentration of 10e-7 M

Leukotriene B4 receptor 1 (Homo sapiens), sequence (Q15722 whole entry): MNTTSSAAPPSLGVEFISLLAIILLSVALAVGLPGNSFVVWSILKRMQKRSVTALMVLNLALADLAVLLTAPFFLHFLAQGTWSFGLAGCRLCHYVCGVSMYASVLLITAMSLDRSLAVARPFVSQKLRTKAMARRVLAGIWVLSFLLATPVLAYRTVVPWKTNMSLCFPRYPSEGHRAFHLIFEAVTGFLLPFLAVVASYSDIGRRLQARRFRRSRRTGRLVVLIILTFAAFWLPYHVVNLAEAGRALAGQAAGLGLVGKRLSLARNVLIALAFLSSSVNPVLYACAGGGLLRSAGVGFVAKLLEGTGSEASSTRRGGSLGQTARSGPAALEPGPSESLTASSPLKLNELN

Structure (SMILES)	inhibition [1] [%]	inhibition [2] [%]	inhibition [3] [%]
O=C(O)CCc1cc(NC(=O)c2cccc(C(=O)O)c2)ccc1OCCCCCCc1ccccc1	98	73	–
CCCCCCCCCCOc1ccc(C(=O)c2ccc(C(=O)O)cc2)cc1CC(=O)O	76	35	–
O=C(O)CCc1cc(S(=O)(=O)c2cccc(C(=O)O)c2)ccc1OCCCCCCc1ccccc1	100	79	24
CCCCCCCCCCOc1ccc(C(=O)c2cccc(-c3nn[nH]n3)c2)cc1CCC(=O)OCC	0	1	–
O=C(O)CCc1cc([S+]([O-])c2cccc(C(=O)O)c2)ccc1OCCCCCCc1ccccc1 (stereo unspecified)	79	71	37
C=C(c1cccc(C(=O)O)c1)c1ccc(OCCCCCCCCCC)c(CCC(=O)O)c1	71	39	–
CCCCCCCCCCOc1ccc(C(=O)c2cccc(C(=O)O)c2)c(CC(=O)O)c1	74	23	–
CCCCCCCCCCOc1ccc(C(=O)c2cccc(C(=O)OCC)c2)cc1Cc1nnn[nH]1	0	14	–
CCCCCCCCCCOc1ccc(C(=O)c2cccc(C(=O)OCC)c2)cc1CC(=O)OCC	0	0	–
CCCCCCCCCCOc1ccc(C(=O)c2cccc(C(=O)O)c2)cc1CCCC(=O)O	89	52	–
CCCCCCCCCCOc1ccc(C(OCC)c2cccc(C(=O)O)c2)cc1CCC(=O)O (stereo unspecified)	78	26	–
CCCCCCCCCCOc1ccc(C(=O)c2cccc(C(=O)O)c2)cc1CC(=O)O	73	27	–
CCCCCCCCCCOc1ccc(C(=O)c2ccccc2C(=O)O)cc1CC(=O)O	60	7	–
CCCCCCCCCCOc1ccc(C(=O)c2cccc(S(=O)(=O)NC)c2)cc1CCC(=O)O	22	9	–
CCCCCCCCCCOc1ccc(C(=O)c2cccc([N+](=O)[O-])c2)cc1CCC(=O)O	13	0	–
O=C(O)CCc1cccc(NC(=O)c2cccc(C(=O)O)c2)c1OCCCCCCc1ccccc1	24	0	–
CCCCCCCCCCOc1ccc(C(=O)c2ccccc2CC(=O)O)cc1CCC(=O)O	100	79	–
CCCCCCCCCCOc1ccc(C(=O)c2ccccc2)cc1CC(=O)O	24	1	–
CCCCCCCCCCOc1ccc(C(=O)c2cccc(-c3nn[nH]n3)c2)cc1CC(=O)O	93	28	–
CCCCCCCCCCOc1ccc(C(=O)c2cccc(C(=O)O)c2)cc1CCc1nnn[nH]1	96	55	–
CCCCCCCCCCOc1ccc(C(O)c2cccc(C(=O)O)c2)cc1CC(=O)O (stereo unspecified)	75	28	–
CCCCCCCCCCOc1ccc(/C(=N\O)c2cccc(C(=O)O)c2)cc1CCC(=O)O	92	61	–
O=C(O)CCc1cc(C(=O)c2cccc(C(=O)O)c2)ccc1OCCCCCCc1ccccc1	100	85	–
O=C(O)CCc1cc(/C(=N\O)c2cccc(C(=O)O)c2)ccc1OCCCCCCc1ccccc1	96	84	30
CCCCCCCCCCOc1ccc(C(=O)c2cccc(C(=O)NC)c2)cc1CCC(=O)NC	0	0	–
CCCCCCCCCCOc1ccc(C(=O)c2cccc(C(=O)O)c2)cc1CCC(=O)O	95	60	–
CCCCCCCCCCOc1ccc(C(=O)c2cccc(C(=O)O)c2)cc1Cc1nnn[nH]1	83	34	–
CCCCCCCCCCOc1ccc(C(=O)c2cccc(C#N)c2)cc1CC#N	3	0	–

Now from value to molecule:

inhibition [1] [%]	inhibition [2] [%]	inhibition [3] [%]	Structure (SMILES)
88	41	–	CCCCCCCCCCOc1ccc(Cc2cccc(C(=O)O)c2)cc1CCC(=O)O
91	55	–	CCCCCCCCCCOc1ccc(C(O)c2cccc(C(=O)O)c2)cc1CCC(=O)O (stereo unspecified)
0	3	–	CCCCCCCCCCOc1ccc(C(O)c2cccc(C(=O)O)c2)cc1 (stereo unspecified)
81	20	–	CCCCCCCCCCOc1ccc(C(=O)c2cccc(-c3nnn[nH]3)c2)cc1Cc1nnn[nH]1
99	68	–	CCCCCCCCCCOc1ccc(C(=O)c2cccc(Cc3nnn[nH]3)c2)cc1CCC(=O)O
98	71	–	CCCCCCCCCCOc1ccc(C(=O)c2cccc(-c3nn[nH]n3)c2)cc1CCC(=O)O
39	2	–	CCCCCCCCCCOc1ccc(C(=O)CCCC(=O)O)cc1CC(=O)O
88	41	–	CCCCCCCCCCOc1ccc(Oc2cccc(C(=O)O)c2)cc1CCC(=O)O
76	21	–	CCCCCCCCCCOc1ccc(C(=O)c2cccc(C(=O)O)c2)cc1C(=O)O
102	67	29	O=C(O)CCc1cc(Sc2cccc(C(=O)O)c2)ccc1OCCCCCCc1ccccc1
19	13	–	CCCCCCCCCCOc1ccc(C(=O)c2cccc(C(=O)O)c2)c(O)c1
59	15	–	CCCCCCCCCCOc1ccc(C(O)c2ccc(C(=O)O)cc2)cc1CC(=O)O (stereo unspecified)
95	53	–	CCCCCCCCCCOc1ccc(C(=O)Cc2ccccc2C(=O)O)cc1CCC(=O)O
